Experimental data as given in ChEMBL document CHEMBL1148480, “Structure-activity studies of orexin a and orexin B at the human orexin 1 and orexin 2 receptors led to orexin 2 receptor selective and orexin 1 receptor preferring ligands” (J Med Chem, 2004).
Residues, ends and D or L forms follow the SMILES beside them.

Legend:
Orexin receptor type 2 = target: T1, Orexin receptor type 2 (Homo sapiens, UniProt O43614); assay: Effective agonist concentration to the human Orexin receptor type 2 was determined using the Xlfit program; format: functional
T1 sequence (O43614 whole entry): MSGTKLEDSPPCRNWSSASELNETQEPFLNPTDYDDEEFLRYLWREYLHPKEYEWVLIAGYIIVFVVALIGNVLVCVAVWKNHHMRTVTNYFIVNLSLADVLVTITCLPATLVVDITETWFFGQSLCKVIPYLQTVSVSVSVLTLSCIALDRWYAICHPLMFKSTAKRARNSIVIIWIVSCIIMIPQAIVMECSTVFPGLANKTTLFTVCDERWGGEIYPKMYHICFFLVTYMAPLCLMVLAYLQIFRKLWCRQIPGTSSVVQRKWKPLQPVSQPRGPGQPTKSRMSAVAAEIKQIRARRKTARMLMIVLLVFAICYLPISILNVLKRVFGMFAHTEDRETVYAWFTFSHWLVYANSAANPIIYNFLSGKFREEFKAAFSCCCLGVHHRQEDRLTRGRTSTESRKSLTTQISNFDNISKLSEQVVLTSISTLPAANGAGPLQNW

[1] = target: T2, Orexin/Hypocretin receptor type 1 (Homo sapiens, UniProt O43613); assay: Effective agonist concentration to human orexin receptor type 1 determined using the Xlfit program; format: functional
T2 sequence (O43613 whole entry): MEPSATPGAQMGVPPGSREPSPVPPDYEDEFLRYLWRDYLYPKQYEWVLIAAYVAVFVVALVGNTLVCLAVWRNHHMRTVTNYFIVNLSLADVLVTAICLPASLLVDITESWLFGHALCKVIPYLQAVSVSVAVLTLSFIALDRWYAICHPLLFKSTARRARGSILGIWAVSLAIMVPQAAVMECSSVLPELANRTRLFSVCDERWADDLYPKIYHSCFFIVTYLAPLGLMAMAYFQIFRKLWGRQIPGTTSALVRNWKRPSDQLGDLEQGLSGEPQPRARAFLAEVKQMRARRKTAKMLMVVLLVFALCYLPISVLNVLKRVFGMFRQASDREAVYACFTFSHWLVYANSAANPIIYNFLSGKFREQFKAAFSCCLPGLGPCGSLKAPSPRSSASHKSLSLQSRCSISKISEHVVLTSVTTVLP

[2] = Ratio of orexin-1 receptor to orexin-2 receptor in human

Row | SMILES | EC50 (Orexin receptor type 2) [µM] | EC50 [1] [µM] | Ratio [2]
1 | CC[C@H](C)[C@H](NC(=O)CNC(=O)[C@H](C)NC(=O)[C@H](C)NC(=O)[C@H](Cc1c[nH]cn1)NC(=O)[C@H](CC(N)=O)NC(=O)CNC(=O)[C@H](CO)NC(=O)[C@H](C)NC(=O)[C@H](CCC(N)=O)NC(=O)[C@H](CC(C)C)NC(=O)[C@H](CC(C)C)NC(=O)[C@H](CCCN=C(N)N)NC(=O)[C@H](CCC(N)=O)NC(=O)[C@H](CC(C)C)NC(=O)[C@H](CCCN=C(N)N)NC(=O)CNC(=O)[C@H](CCC(N)=O)NC(=O)[C@H](CC(C)C)NC(=O)CN)C(=O)N[C@@H](CC(C)C)C(=O)N[C@H](C(=O)N[C@@H](C)C(=O)O)[C@@H](C)O (H-GLQGRLQRLLQASGNHAAGILTA-OH) | 0.75 | 4.84 | 6.5
2 | CC[C@H](C)[C@H](NC(=O)CNC(=O)[C@H](C)NC(=O)[C@H](C)NC(=O)[C@H](Cc1c[nH]cn1)NC(=O)[C@H](CC(N)=O)NC(=O)CNC(=O)[C@H](CO)NC(=O)[C@H](C)NC(=O)[C@H](CCC(N)=O)NC(=O)[C@H](CC(C)C)NC(=O)[C@H](CC(C)C)NC(=O)[C@H](CCCN=C(N)N)NC(=O)[C@H](CCC(N)=O)NC(=O)[C@H](CC(C)C)NC(=O)[C@H](CCCN=C(N)N)NC(=O)CNC(=O)[C@H](CCC(N)=O)NC(=O)[C@H](CC(C)C)NC(=O)CN)C(=O)N[C@@H](CC(C)C)C(=O)N[C@H](C(=O)N1CCC[C@H]1C(=O)O)[C@@H](C)O (H-GLQGRLQRLLQASGNHAAGILTP-OH) | 3.63 | > 1000 | > 275
3 | CC[C@H](C)[C@H](NC(=O)CNC(=O)[C@H](C)NC(=O)[C@H](C)NC(=O)[C@H](Cc1c[nH]cn1)NC(=O)[C@H](CC(N)=O)NC(=O)CNC(=O)[C@H](CO)NC(=O)[C@H](C)NC(=O)[C@H](CCC(N)=O)NC(=O)[C@H](CC(C)C)NC(=O)[C@H](C)NC(=O)[C@H](CCCN=C(N)N)NC(=O)[C@H](CCC(N)=O)NC(=O)[C@H](CC(C)C)NC(=O)[C@H](CCCN=C(N)N)NC(=O)CNC(=O)[C@H](CCC(N)=O)NC(=O)[C@H](CC(C)C)NC(=O)CN)C(=O)N[C@@H](CC(C)C)C(=O)N[C@H](C(=O)N[C@@H](CCSC)C(=O)O)[C@@H](C)O (H-GLQGRLQRALQASGNHAAGILTM-OH) | 2.28 | 5.89 | 2.6
4 | CC[C@H](C)[C@H](NC(=O)CNC(=O)[C@H](C)NC(=O)[C@H](C)NC(=O)[C@H](Cc1c[nH]cn1)NC(=O)[C@H](CC(N)=O)NC(=O)CNC(=O)[C@H](CO)NC(=O)[C@H](C)NC(=O)[C@H](CCC(N)=O)NC(=O)[C@H](CC(C)C)NC(=O)[C@H](CC(C)C)NC(=O)[C@H](CCCN=C(N)N)NC(=O)[C@H](CCC(N)=O)NC(=O)[C@H](CC(C)C)NC(=O)[C@H](CCCN=C(N)N)NC(=O)CNC(=O)[C@H](CCC(N)=O)NC(=O)[C@H](CC(C)C)NC(=O)[C@@H]1CCCN1)C(=O)N[C@@H](CC(C)C)C(=O)N[C@H](C(=O)N[C@@H](CCSC)C(=O)O)[C@@H](C)O (H-PLQGRLQRLLQASGNHAAGILTM-OH) | 0.49 | 8.28 | 16.9
5 | CC[C@H](C)[C@H](NC(=O)CNC(=O)[C@H](C)NC(=O)[C@H](C)NC(=O)[C@H](Cc1c[nH]cn1)NC(=O)[C@H](CC(N)=O)NC(=O)CNC(=O)[C@H](CO)NC(=O)[C@H](C)NC(=O)[C@H](CCC(N)=O)NC(=O)[C@H](CC(C)C)NC(=O)[C@H](CC(C)C)NC(=O)[C@H](CCCN=C(N)N)NC(=O)[C@H](CCC(N)=O)NC(=O)[C@H](CC(C)C)NC(=O)[C@H](CCCN=C(N)N)NC(=O)CNC(=O)[C@@H]1CCCN1C(=O)[C@H](CC(C)C)NC(=O)CN)C(=O)N[C@@H](CC(C)C)C(=O)N[C@H](C(=O)N[C@@H](CCSC)C(=O)O)[C@@H](C)O (H-GLPGRLQRLLQASGNHAAGILTM-OH) | 0.16 | – | 7.5

Further compounds by falling EC50 (Orexin receptor type 2), results first:

Row | EC50 (Orexin receptor type 2) [µM] | EC50 [1] [µM] | Ratio [2] | SMILES
6 | 20.1 | > 1000 | > 50 | CC[C@H](C)[C@H](NC(=O)CNC(=O)[C@H](C)NC(=O)[C@H](C)NC(=O)[C@H](Cc1c[nH]cn1)NC(=O)[C@H](CC(N)=O)NC(=O)CNC(=O)[C@H](CO)NC(=O)[C@H](C)NC(=O)[C@H](CCC(N)=O)NC(=O)[C@@H]1CCCN1C(=O)[C@H](CC(C)C)NC(=O)[C@H](CCCN=C(N)N)NC(=O)[C@H](CCC(N)=O)NC(=O)[C@H](CC(C)C)NC(=O)[C@H](CCCN=C(N)N)NC(=O)CNC(=O)[C@H](CCC(N)=O)NC(=O)[C@H](CC(C)C)NC(=O)CN)C(=O)N[C@@H](CC(C)C)C(=O)N[C@H](C(=O)N[C@@H](CCSC)C(=O)O)[C@@H](C)O (H-GLQGRLQRLPQASGNHAAGILTM-OH)
7 | 9.43 | > 1000 | > 105 | CC[C@H](C)[C@H](NC(=O)[C@@H]1CCCN1C(=O)[C@H](C)NC(=O)[C@H](C)NC(=O)[C@H](Cc1c[nH]cn1)NC(=O)[C@H](CC(N)=O)NC(=O)CNC(=O)[C@H](CO)NC(=O)[C@H](C)NC(=O)[C@H](CCC(N)=O)NC(=O)[C@H](CC(C)C)NC(=O)[C@H](CC(C)C)NC(=O)[C@H](CCCN=C(N)N)NC(=O)[C@H](CCC(N)=O)NC(=O)[C@H](CC(C)C)NC(=O)[C@H](CCCN=C(N)N)NC(=O)CNC(=O)[C@H](CCC(N)=O)NC(=O)[C@H](CC(C)C)NC(=O)CN)C(=O)N[C@@H](CC(C)C)C(=O)N[C@H](C(=O)N[C@@H](CCSC)C(=O)O)[C@@H](C)O (H-GLQGRLQRLLQASGNHAAPILTM-OH)
8 | 2.51 | 0.86 | 0.3 | CC[C@H](C)[C@H](NC(=O)CNC(=O)[C@H](C)NC(=O)[C@H](C)NC(=O)[C@H](Cc1c[nH]cn1)NC(=O)[C@H](CC(N)=O)NC(=O)CNC(=O)[C@H](C)NC(=O)CNC(=O)[C@H](Cc1c[nH]cn1)NC(=O)[C@H](CC(C)C)NC(=O)[C@H](CC(C)C)NC(=O)[C@H](CCC(=O)O)NC(=O)[C@H](Cc1ccc(O)cc1)NC(=O)[C@H](CC(C)C)NC(=O)[C@H](CCCN=C(N)N)NC(=O)[C@H](CS)NC(=O)[C@H](CO)NC(=O)[C@H](CS)NC(=O)[C@@H](NC(=O)[C@H](CCCCN)NC(=O)[C@H](CCC(N)=O)NC(=O)[C@H](CCCN=C(N)N)NC(=O)[C@H](CS)NC(=O)[C@H](CS)NC(=O)[C@H](CC(=O)O)NC(=O)[C@@H]1CCCN1C(=O)[C@H](CC(C)C)NC(=O)[C@@H]1CCCN1)[C@@H](C)O)C(=O)N[C@@H](CC(C)C)C(=O)N[C@H](C(=O)N[C@@H](CC(C)C)C(=O)O)[C@@H](C)O
9 | 2.48 | 9.49 | 3.8 | CC[C@H](C)[C@H](NC(=O)CNC(=O)[C@H](C)NC(=O)[C@H](C)NC(=O)[C@H](Cc1c[nH]cn1)NC(=O)[C@H](CC(N)=O)NC(=O)CNC(=O)[C@H](CO)NC(=O)[C@H](C)NC(=O)[C@@H]1CCCN1C(=O)[C@H](CC(C)C)NC(=O)[C@H](CC(C)C)NC(=O)[C@H](CCCN=C(N)N)NC(=O)[C@H](CCC(N)=O)NC(=O)[C@H](CC(C)C)NC(=O)[C@H](CCCN=C(N)N)NC(=O)CNC(=O)[C@H](CCC(N)=O)NC(=O)[C@H](CC(C)C)NC(=O)CN)C(=O)N[C@@H](CC(C)C)C(=O)N[C@H](C(=O)N[C@@H](CCSC)C(=O)O)[C@@H](C)O (H-GLQGRLQRLLPASGNHAAGILTM-OH)
10 | 0.76 | > 1000 | > 1350 | CC[C@H](C)[C@H](NC(=O)CNC(=O)[C@H](C)NC(=O)[C@H](C)NC(=O)[C@H](Cc1c[nH]cn1)NC(=O)[C@H](CC(N)=O)NC(=O)CNC(=O)[C@H](CO)NC(=O)[C@H](C)NC(=O)[C@H](CCC(N)=O)NC(=O)[C@H](CC(C)C)NC(=O)[C@H](CC(C)C)NC(=O)[C@H](CCCN=C(N)N)NC(=O)[C@H](CCC(N)=O)NC(=O)[C@H](CC(C)C)NC(=O)[C@H](CCCN=C(N)N)NC(=O)CNC(=O)[C@H](CCC(N)=O)NC(=O)[C@H](CC(C)C)NC(=O)CN)C(=O)N[C@@H](CC(C)C)C(=O)N[C@@H](C)C(=O)N[C@@H](CCSC)C(=O)O (H-GLQGRLQRLLQASGNHAAGILAM-OH)
11 | 0.63 | 8.77 | 13.9 | CC[C@H](C)[C@H](NC(=O)CNC(=O)[C@H](C)NC(=O)[C@H](C)NC(=O)[C@H](Cc1c[nH]cn1)NC(=O)[C@H](CC(N)=O)NC(=O)CNC(=O)[C@H](CO)NC(=O)[C@H](C)NC(=O)[C@H](CCC(N)=O)NC(=O)[C@H](CC(C)C)NC(=O)[C@H](CC(C)C)NC(=O)[C@H](CCCN=C(N)N)NC(=O)[C@H](CCC(N)=O)NC(=O)[C@H](CC(C)C)NC(=O)[C@H](CCCN=C(N)N)NC(=O)CNC(=O)[C@H](CCC(N)=O)NC(=O)[C@H](CC(C)C)NC(=O)CN)C(=O)N1CCC[C@H]1C(=O)N[C@H](C(=O)N[C@@H](CCSC)C(=O)O)[C@@H](C)O (H-GLQGRLQRLLQASGNHAAGIPTM-OH)
